From ChEMBL document CHEMBL1139272, “Beyond the MEK-pocket: can current MEK kinase inhibitors be utilized to synthesize novel type III NCKIs? Does the MEK-pocket exist in kinases other than MEK?” (Bioorg Med Chem Lett, 2009)

How the values were obtained:
[1] = biological target: Serine/threonine-protein kinase PAK 4 (Homo sapiens) (UniProt O96013); experiment: Binding affinity to PAK4 at 10 uM
[2] = biological target: High affinity nerve growth factor receptor (Homo sapiens) (UniProt P04629); experiment: Binding affinity to TrkA at 10 uM
[3] = Binding affinity to GSK3 at 10 uM
[4] = biological target: T1, Serine/threonine-protein kinase Sgk1 (Homo sapiens) (UniProt O00141); experiment: Binding affinity to SGK at 10 uM
T1 sequence (whole entry): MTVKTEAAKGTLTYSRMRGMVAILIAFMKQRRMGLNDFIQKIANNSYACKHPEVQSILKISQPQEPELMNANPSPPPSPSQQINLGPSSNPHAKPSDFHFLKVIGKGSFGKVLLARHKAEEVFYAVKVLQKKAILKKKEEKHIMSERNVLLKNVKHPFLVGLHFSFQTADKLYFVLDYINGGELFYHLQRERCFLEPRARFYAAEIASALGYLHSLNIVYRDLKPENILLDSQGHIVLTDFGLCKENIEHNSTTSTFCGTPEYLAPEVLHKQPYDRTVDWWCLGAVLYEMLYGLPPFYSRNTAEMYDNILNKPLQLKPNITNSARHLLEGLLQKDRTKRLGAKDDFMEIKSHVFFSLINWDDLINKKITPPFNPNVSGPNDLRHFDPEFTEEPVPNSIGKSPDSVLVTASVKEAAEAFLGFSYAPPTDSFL

[5] = biological target: MAP kinase-activated protein kinase 2 (Homo sapiens) (UniProt P49137); experiment: Binding affinity to MK2 at 10 uM
[6] = Binding affinity to PKC at 10 uM
[7] = Binding affinity to NEK at 10 uM
[8] = Binding affinity to p38 at 10 uM
[9] = biological target: T2, Aurora kinase A (Homo sapiens) (UniProt O14965); experiment: Binding affinity to Aurora A at 10 uM
T2 sequence (whole entry): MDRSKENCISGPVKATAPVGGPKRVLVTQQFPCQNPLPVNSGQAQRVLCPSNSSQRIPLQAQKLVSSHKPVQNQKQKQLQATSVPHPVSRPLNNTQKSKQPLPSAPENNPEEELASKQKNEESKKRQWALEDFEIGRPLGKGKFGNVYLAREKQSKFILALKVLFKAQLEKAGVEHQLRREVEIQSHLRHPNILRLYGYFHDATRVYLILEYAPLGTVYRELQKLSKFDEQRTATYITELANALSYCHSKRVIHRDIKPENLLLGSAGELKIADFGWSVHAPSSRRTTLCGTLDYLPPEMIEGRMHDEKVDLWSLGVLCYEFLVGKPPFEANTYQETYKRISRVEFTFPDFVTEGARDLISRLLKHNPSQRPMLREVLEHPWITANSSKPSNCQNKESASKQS

Ephrin type-A receptor 2 [10] = biological target: T3, Ephrin type-A receptor 2 (Homo sapiens, UniProt P29317); experiment: Binding affinity to EPHA2 at 10 uM
[11] = Binding affinity to MEK
Ephrin type-A receptor 2 [12] = biological target: T3, Ephrin type-A receptor 2; experiment: Binding affinity to ECK
[13] = biological target: Protein kinase C beta type (Homo sapiens, UniProt P05771); experiment: Binding affinity to PKC beta2
[14] = Binding affinity to p38
Aurora kinase A = biological target: T4, Aurora kinase A (Homo sapiens, UniProt O14965); experiment: Binding affinity to Aurora A
T4 sequence (O14965 whole entry): T2 sequence (whole entry)

[15] = biological target: Tyrosine-protein kinase BTK (Homo sapiens, UniProt Q06187)
[16] = biological target: Vascular endothelial growth factor receptor 2 (Homo sapiens, UniProt P35968); experiment: Binding affinity to VEGFR2
Sequence of Vascular endothelial growth factor receptor 2 (P35968 whole entry): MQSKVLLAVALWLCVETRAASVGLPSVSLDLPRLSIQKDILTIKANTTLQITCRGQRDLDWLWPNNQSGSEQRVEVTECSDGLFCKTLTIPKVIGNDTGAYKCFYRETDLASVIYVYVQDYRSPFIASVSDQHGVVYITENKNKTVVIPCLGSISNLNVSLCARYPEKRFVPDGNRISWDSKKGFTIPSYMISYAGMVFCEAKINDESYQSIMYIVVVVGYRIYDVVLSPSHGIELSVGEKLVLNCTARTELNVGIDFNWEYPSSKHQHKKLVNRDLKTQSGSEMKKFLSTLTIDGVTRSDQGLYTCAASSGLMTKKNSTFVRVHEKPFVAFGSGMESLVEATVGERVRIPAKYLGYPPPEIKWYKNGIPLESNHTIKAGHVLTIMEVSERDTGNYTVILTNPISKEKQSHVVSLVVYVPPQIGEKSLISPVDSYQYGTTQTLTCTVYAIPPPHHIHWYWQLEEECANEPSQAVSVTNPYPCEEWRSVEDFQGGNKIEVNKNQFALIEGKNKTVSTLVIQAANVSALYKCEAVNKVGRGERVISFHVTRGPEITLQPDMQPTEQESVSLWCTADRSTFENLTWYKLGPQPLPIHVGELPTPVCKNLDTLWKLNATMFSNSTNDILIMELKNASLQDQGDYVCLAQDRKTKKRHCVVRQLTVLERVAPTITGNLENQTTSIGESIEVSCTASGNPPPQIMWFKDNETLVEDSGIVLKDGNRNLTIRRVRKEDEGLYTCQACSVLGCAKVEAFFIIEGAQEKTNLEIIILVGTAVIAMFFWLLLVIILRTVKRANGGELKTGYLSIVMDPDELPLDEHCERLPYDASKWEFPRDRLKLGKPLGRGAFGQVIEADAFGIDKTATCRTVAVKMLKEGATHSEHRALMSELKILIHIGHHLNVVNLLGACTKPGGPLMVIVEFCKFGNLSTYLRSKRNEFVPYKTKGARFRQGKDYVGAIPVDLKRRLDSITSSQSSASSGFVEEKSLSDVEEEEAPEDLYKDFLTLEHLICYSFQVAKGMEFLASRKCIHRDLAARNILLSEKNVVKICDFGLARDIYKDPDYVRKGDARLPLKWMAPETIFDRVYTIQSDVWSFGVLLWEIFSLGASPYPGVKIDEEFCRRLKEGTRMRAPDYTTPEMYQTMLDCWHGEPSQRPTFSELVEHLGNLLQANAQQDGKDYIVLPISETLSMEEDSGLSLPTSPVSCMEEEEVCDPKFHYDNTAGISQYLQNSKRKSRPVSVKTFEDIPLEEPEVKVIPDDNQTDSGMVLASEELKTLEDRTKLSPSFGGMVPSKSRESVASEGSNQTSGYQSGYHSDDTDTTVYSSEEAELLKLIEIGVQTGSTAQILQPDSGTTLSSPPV

[17] = biological target: Proto-oncogene tyrosine-protein kinase Src (Homo sapiens, UniProt P12931); experiment: Binding affinity to SRC
Sequence of Proto-oncogene tyrosine-protein kinase Src (P12931 2-536 limits assumed): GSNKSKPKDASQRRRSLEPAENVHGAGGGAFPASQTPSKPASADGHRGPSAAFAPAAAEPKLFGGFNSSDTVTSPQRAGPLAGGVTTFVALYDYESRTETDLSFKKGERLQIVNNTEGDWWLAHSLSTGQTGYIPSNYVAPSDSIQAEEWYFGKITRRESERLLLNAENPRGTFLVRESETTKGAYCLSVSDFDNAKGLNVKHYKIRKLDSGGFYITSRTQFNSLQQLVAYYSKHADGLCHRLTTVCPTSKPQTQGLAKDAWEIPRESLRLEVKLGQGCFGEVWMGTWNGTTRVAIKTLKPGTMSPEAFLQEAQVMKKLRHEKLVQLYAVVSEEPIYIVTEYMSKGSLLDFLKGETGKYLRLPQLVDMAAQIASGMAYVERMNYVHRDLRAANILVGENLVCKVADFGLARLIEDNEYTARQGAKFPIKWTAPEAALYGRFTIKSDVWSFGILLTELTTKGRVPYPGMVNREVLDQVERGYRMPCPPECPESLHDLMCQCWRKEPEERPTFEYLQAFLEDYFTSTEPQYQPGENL

[18] = biological target: Fibroblast growth factor receptor 1 (Homo sapiens, UniProt P11362); experiment: Binding affinity to FGFR1
Sequence of Fibroblast growth factor receptor 1 (P11362 whole entry): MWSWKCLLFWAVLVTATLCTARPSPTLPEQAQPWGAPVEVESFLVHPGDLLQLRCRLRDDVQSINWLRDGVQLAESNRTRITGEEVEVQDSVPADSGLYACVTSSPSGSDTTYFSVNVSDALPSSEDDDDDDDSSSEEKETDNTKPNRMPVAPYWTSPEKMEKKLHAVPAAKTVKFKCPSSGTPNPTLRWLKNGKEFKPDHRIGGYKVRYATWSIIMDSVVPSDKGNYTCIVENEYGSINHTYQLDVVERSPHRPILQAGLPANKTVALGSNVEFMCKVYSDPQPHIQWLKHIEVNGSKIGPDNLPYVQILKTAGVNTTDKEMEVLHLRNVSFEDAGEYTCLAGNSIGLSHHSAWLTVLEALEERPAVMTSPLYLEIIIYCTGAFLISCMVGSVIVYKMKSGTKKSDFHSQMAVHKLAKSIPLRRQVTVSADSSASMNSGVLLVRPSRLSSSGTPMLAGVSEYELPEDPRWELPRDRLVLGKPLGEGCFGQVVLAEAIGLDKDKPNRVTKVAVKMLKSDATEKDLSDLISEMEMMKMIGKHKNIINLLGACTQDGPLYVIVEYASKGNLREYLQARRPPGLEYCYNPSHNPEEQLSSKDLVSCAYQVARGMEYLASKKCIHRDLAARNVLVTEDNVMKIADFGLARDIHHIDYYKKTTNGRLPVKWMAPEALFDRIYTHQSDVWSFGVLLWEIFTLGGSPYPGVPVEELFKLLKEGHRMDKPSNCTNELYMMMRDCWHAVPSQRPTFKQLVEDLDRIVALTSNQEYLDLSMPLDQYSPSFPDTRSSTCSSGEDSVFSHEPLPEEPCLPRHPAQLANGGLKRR

[19] = biological target: Tyrosine-protein kinase ABL1 (Homo sapiens, UniProt P00519); experiment: Binding affinity to ABL
Sequence of Tyrosine-protein kinase ABL1 (P00519 whole entry): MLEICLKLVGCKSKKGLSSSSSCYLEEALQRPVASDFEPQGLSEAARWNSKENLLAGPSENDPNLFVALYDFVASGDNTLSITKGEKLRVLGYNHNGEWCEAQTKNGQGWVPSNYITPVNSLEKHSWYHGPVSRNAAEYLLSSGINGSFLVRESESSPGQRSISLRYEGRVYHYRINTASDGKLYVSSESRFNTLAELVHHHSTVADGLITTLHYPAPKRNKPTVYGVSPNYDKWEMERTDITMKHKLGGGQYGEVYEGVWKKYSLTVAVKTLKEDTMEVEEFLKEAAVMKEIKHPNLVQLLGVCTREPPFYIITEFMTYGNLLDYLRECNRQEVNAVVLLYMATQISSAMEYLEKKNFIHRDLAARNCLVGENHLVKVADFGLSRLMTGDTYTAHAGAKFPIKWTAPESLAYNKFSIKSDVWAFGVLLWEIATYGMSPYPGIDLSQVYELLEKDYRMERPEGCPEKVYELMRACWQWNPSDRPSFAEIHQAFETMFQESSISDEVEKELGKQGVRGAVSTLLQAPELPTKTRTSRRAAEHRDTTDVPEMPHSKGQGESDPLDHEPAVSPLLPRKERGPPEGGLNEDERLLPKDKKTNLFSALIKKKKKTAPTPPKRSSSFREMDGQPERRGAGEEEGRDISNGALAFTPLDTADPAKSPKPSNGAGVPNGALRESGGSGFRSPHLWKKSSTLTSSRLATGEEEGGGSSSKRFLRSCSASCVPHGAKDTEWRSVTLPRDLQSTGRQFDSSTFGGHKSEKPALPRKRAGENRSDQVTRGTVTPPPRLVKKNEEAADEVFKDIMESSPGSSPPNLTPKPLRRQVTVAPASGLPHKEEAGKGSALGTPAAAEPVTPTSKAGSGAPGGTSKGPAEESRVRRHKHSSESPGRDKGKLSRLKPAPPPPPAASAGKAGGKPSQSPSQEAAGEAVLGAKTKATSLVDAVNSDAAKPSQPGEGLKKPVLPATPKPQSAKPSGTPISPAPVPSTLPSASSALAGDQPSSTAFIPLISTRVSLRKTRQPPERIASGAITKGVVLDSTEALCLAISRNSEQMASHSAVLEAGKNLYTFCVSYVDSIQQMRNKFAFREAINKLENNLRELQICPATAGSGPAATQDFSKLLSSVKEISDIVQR

[20] = biological target: Dual specificity protein kinase CLK1 (Homo sapiens, UniProt P49759); experiment: Binding affinity to CLK1
Sequence of Dual specificity protein kinase CLK1 (P49759 whole entry): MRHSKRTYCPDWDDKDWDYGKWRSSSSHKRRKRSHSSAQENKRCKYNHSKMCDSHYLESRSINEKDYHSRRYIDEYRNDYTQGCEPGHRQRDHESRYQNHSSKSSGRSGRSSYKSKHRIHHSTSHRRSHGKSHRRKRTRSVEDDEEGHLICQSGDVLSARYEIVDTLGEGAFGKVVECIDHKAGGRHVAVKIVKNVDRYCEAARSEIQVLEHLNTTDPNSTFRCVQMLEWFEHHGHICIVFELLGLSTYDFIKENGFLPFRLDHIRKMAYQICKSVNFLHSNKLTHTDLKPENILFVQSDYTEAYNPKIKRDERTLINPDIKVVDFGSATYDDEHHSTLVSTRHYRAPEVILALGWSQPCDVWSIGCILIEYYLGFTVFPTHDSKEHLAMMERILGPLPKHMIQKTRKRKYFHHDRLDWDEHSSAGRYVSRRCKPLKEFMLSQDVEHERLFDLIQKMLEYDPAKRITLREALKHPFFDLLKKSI

[21] = biological target: T5, Serine/threonine-protein kinase 3 (Homo sapiens, UniProt Q13188)
T5 sequence (Q13188 whole entry): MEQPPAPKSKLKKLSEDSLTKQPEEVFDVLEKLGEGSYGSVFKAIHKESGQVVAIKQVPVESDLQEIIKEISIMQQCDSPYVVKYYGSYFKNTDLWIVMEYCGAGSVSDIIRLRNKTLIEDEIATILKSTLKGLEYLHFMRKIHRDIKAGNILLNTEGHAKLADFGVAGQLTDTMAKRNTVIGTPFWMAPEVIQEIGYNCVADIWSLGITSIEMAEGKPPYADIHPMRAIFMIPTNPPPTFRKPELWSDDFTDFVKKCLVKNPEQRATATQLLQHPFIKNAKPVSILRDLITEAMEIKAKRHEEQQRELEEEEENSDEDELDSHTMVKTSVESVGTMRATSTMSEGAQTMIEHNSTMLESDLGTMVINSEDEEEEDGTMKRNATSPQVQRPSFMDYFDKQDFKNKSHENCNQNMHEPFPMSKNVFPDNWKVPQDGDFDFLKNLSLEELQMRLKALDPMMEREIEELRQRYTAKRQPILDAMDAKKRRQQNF

[22] = biological target: Mitogen-activated protein kinase kinase kinase 9 (Homo sapiens, UniProt P80192); experiment: Binding affinity to MAP3K9
[23] = biological target: Tyrosine-protein kinase Lck (Homo sapiens, UniProt P06239)

Sequence of Serine/threonine-protein kinase PAK 4 (Homo sapiens) (O96013 whole entry, looked up): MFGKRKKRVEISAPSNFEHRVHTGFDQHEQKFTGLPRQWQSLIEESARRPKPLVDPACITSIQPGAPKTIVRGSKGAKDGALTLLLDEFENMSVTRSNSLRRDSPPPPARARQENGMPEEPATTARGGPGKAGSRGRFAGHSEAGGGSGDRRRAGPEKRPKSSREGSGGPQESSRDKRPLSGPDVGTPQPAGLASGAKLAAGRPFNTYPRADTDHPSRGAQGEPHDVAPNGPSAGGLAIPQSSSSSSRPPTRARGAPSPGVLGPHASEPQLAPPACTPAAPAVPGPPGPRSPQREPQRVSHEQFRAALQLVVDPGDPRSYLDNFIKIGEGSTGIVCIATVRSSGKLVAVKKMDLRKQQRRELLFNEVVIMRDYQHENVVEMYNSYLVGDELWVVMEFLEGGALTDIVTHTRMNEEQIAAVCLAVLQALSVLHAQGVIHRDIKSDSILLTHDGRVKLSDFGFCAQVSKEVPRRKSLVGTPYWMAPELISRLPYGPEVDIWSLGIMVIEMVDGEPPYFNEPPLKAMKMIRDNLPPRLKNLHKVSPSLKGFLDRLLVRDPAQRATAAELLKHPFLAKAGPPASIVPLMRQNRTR

SMILES: O=C(O)CCCO/N=C/c1cc(C(=O)NOCCO)c(Nc2ccc(I)cc2F)c(F)c1F
- inhibition [1]: 33%
- inhibition [2]: 1%
- inhibition [3]: 22%
- inhibition [4]: 39%
- inhibition [5]: 18%
- inhibition [6]: 25%
- inhibition [7]: 25%
- inhibition [8]: 4%
- inhibition [9]: 29%
- inhibition (Ephrin type-A receptor 2 [10]): 37%

SMILES: Cc1cc(I)ccc1Nc1c(C(=O)O)ccc(F)c1F
- IC50 [11]: 0.011 µM

SMILES: O=C(NOCCO)c1ccc(F)c(F)c1Nc1ccc(I)cc1F
- inhibition [1]: 10%
- inhibition [2]: 14%
- inhibition [3]: 0%
- inhibition [4]: 0%
- inhibition [5]: 9%
- inhibition [6]: 9%
- inhibition [7]: 2%
- inhibition [8]: 5%
- inhibition [9]: 11%
- inhibition (Ephrin type-A receptor 2 [10]): 9%

SMILES: O=C(CS(=O)(=O)c1ccc(Cl)cc1)N/N=C/c1cc(C(=O)O)c(Nc2ccc(I)cc2F)c(F)c1F
- IC50 (Ephrin type-A receptor 2 [12]): > 30 µM
- IC50 [13]: > 30 µM
- IC50 [14]: 10 µM
- IC50 (Aurora kinase A): 4 µM
- IC50 [15]: > 30 µM
- IC50 [16]: > 30 µM
- IC50 [17]: 3 µM
- IC50 [18]: > 30 µM
- IC50 [19]: 4 µM
- IC50 [20]: 3 µM

SMILES: O=C(O)c1ccc(F)c(F)c1Nc1ccc(I)cc1Cl [ZAPNOMETINIB]
- IC50 [11]: 0.00573 µM

SMILES: O=C(N/N=C/c1cc(C(=O)O)c(Nc2ccc(I)cc2F)c(F)c1F)c1ccc(CO)o1
- IC50 (Ephrin type-A receptor 2 [12]): 3 µM
- IC50 [13]: > 30 µM
- IC50 [14]: 5 µM
- IC50 (Aurora kinase A): 3 µM
- IC50 [21]: > 30 µM
- IC50 [16]: 3 µM
- IC50 [22]: 4 µM
- IC50 [17]: 0.1 µM
- IC50 [18]: 2 µM
- IC50 [19]: 0.3 µM
- IC50 [20]: 15 µM

SMILES: COCCCNC(=O)N/N=C/c1cc(C(=O)NOCCO)c(Nc2ccc(I)cc2F)c(F)c1F
- inhibition [1]: 0%
- inhibition [2]: 0%
- inhibition [3]: 16%
- inhibition [4]: 0%
- inhibition [5]: 1%
- inhibition [6]: 10%
- inhibition [7]: 0%
- inhibition [8]: 31%
- inhibition [9]: 0%
- inhibition (Ephrin type-A receptor 2 [10]): 7%

SMILES: NC(=O)C[C@H](N)C(=O)NCc1cc(C(=O)O)c(Nc2ccc(I)cc2F)c(F)c1F
- IC50 (Ephrin type-A receptor 2 [12]): > 30 µM
- IC50 [13]: 2 µM
- IC50 [14]: > 30 µM
- IC50 (Aurora kinase A): 2 µM
- IC50 [21]: 6 µM
- IC50 [15]: > 30 µM
- IC50 [16]: > 30 µM
- IC50 [22]: > 30 µM
- IC50 [17]: 4 µM
- IC50 [23]: > 30 µM
- IC50 [18]: > 30 µM
- IC50 [19]: > 30 µM
- IC50 [20]: > 30 µM

SMILES: O=C(O)c1ccc(CO/N=C/c2cc(C(=O)NOCCO)c(Nc3ccc(I)cc3F)c(F)c2F)o1
- inhibition [1]: 28%
- inhibition [2]: 0%
- inhibition [3]: 36%
- inhibition [4]: 60%
- inhibition [5]: 28%
- inhibition [6]: 27%
- inhibition [7]: 20%
- inhibition [8]: 19%
- inhibition [9]: 21%
- inhibition (Ephrin type-A receptor 2 [10]): 22%

SMILES: O=C(NOCCO)c1cc(COCCO)c(F)c(F)c1Nc1ccc(I)cc1F
- inhibition [1]: 22%
- inhibition [2]: 27%
- inhibition [3]: 25%
- inhibition [4]: 0%
- inhibition [5]: 5%
- inhibition [6]: 0%
- inhibition [7]: 13%
- inhibition [8]: 5%
- inhibition [9]: 2%
- inhibition (Ephrin type-A receptor 2 [10]): 13%

SMILES: CS(=O)(=O)c1ccc(CNCc2cc(C(=O)O)c(Nc3ccc(I)cc3F)c(F)c2F)cc1
- IC50 (Ephrin type-A receptor 2 [12]): > 30 µM
- IC50 [13]: > 30 µM
- IC50 [14]: > 30 µM
- IC50 (Aurora kinase A): 1 µM
- IC50 [15]: > 30 µM
- IC50 [16]: 18 µM
- IC50 [22]: 5 µM
- IC50 [17]: > 30 µM
- IC50 [23]: > 30 µM
- IC50 [18]: > 30 µM
- IC50 [19]: > 30 µM
- IC50 [20]: > 30 µM

SMILES: O=C(NOCCO)c1cc(/C=N/OCCO)c(F)c(F)c1Nc1ccc(I)cc1F
- inhibition [1]: 0%
- inhibition [2]: 0%
- inhibition [3]: 5%
- inhibition [4]: 0%
- inhibition [5]: 2%
- inhibition [6]: 1%
- inhibition [7]: 0%
- inhibition [8]: 1%
- inhibition [9]: 5%
- inhibition (Ephrin type-A receptor 2 [10]): 9%
